Source: patent US20260315611A1, “LINKER COMPOUNDS AND LIGAND-DRUG CONJUGATES, PREPARATION METHODS AND USES THEREOF” (Biocytogen Pharmaceuticals (Beijing) Co., Ltd., priority 2023, published 2026)
pIC50: −log10 of the molar value.

Columns and labels:
multiple cell lines = assay: in vitro killing activity, multiple tumor cell lines; format: cell-based, human, mice, rat, dog
Method: (§1) Different concentrations of compounds CPT-1, CPT-2, CPT-3, CPT-4, Dxd (MedChem Express, Cat #: HY-13631D) and SN38 (MedChem Express, Cat #: HY-13704) were used to treat different human tumor cell lines, mice tumor cell lines, rat tumor cell lines or dog tumor cell lines cultured in a cell culture plate, respectively. And the killing activity was detected after 72 h-120 h incubation by IncuCyte (Sartorius AG, IncuCyte® S3) or MicroplateReader.

HS-746T = assay: in vitro killing activity; format: cell-based, Human; conditions: 120 time of incubation
Method: as §1

NCI-H1781 = assay: in vitro killing activity; format: cell-based, Human; conditions: 120 time of incubation
Method: as §1

Panc 02.03 = assay: in vitro killing activity; format: cell-based, Human; conditions: 120 time of incubation
Method: as §1

U-2-OS = assay: in vitro killing activity; format: cell-based, Human; conditions: 120 time of incubation
Method: as §1

NCI-H226 = assay: in vitro killing activity; format: cell-based, Human; conditions: 120 h incubation
Method: as §1

HCC1954 = assay: in vitro killing activity; format: cell-based, Human; conditions: 120 time of incubation
Method: as §1

NCI-H69 = assay: in vitro killing activity; format: cell-based, Human; conditions: 120 time of incubation
Method: as §1

NCI-H1975 = assay: in vitro killing activity; format: cell-based, Human; conditions: 120 time of incubation
Method: as §1

NCI-H2030 = assay: in vitro killing activity; format: cell-based, Human; conditions: 120 time of incubation
Method: as §1

SW620 = assay: in vitro killing activity; format: cell-based, Human; conditions: 120 h incubation
Method: as §1

SKOV-3 = assay: in vitro killing activity; format: cell-based, Human; conditions: 120 time of incubation
Method: as §1

LOVO = assay: in vitro killing activity; format: cell-based, Human; conditions: 120 h incubation
Method: as §1

A-431 = assay: in vitro killing activity; format: cell-based, Human; conditions: 120 time of incubation
Method: as §1

OVKATE = assay: in vitro killing activity; format: cell-based, Human; conditions: 120 time of incubation
Method: as §1

Hela = assay: in vitro killing activity; format: cell-based, Human; conditions: 120 h incubation
Method: as §1

PC-3 = assay: in vitro killing activity; format: cell-based, Human; conditions: 120 time of incubation
Method: as §1

HuH-7 = assay: in vitro killing activity; format: cell-based, Human; conditions: 120 h incubation
Method: as §1

NCI-N87 = assay: in vitro killing activity; format: cell-based, Human; conditions: 120 time of incubation
Method: as §1

SW156 = assay: in vitro killing activity; format: cell-based, Human; conditions: 120 time of incubation
Method: as §1

BT474 = assay: in vitro killing activity; format: cell-based, Human; conditions: 120 time of incubation
Method: as §1

BxPC-3 = assay: in vitro killing activity; format: cell-based, Human; conditions: 120 time of incubation
Method: as §1

L6 = assay: in vitro killing activity; format: cell-based, Rat; conditions: 120 h incubation
Method: as §1

PC12 = assay: in vitro killing activity; format: cell-based, Rat; conditions: 120 time of incubation
Method: as §1

CT26 = assay: in vitro killing activity; format: cell-based, Mice; conditions: 96 time of incubation
Method: as §1

B16F10 = assay: in vitro killing activity; format: cell-based, Mice; conditions: 75 time of incubation
Method: as §1

MC38 = assay: in vitro killing activity; format: cell-based, Mice; conditions: 120 time of incubation
Method: as §1

MP-0094-2 = assay: in vitro killing activity; format: cell-based, Dog; conditions: 120 time of incubation
Method: as §1

MP-0094-3 = assay: in vitro killing activity; format: cell-based, Dog; conditions: 120 time of incubation
Method: as §1

D17 = assay: in vitro killing activity; format: cell-based, Dog; conditions: 120 time of incubation
Method: as §1

MP-1092-1 = assay: in vitro killing activity; format: cell-based, Dog; conditions: 120 time of incubation
Method: as §1

CMT-U27 = assay: in vitro killing activity; format: cell-based, Dog; conditions: 120 time of incubation
Method: as §1

DCOL1 (S+L−) = assay: in vitro killing activity; format: cell-based, Dog; conditions: 120 time of incubation
Method: as §1

MP-1044-1 = assay: in vitro killing activity; format: cell-based, Dog; conditions: 72 time of incubation
Method: as §1

Pgp = conditions: cited from earlier work

CC[C@@]1(O)C(=O)OCc2c1cc1n(c2=O)Cc2c-1nc1ccc(N)c3c1c2CCO3 [CPT-2, (S)-4-amino-9-ethyl-9-hydroxy-1,9,12,15-tetrahydro-13H-pyrano[4,3,2-de]pyrano[3′,4′:6,7]indolizino[1,2-b]quinoline-10,13(2H)-dione]
in vitro killing activity (multiple cell lines): good in vitro killing activity | tumor cell inhibition effect compared with Dxd and SN38 (multiple cell lines): higher tumor cell inhibition effect than Dxd and SN38 | pIC50 (HS-746T; Homo sapiens, Hs746T): 9.26 | pIC50 (NCI-H1781; Homo sapiens, NCI-H1781): 9.40 | pIC50 (Panc 02.03; Homo sapiens, Panc 02.03): 9.52 | pIC50 (U-2-OS; Homo sapiens, U2OS): 8.85 | pIC50 (NCI-H226; Homo sapiens, NCI-H226): 8.56 | pIC50 (HCC1954; Homo sapiens, HCC1954): 8.94 | pIC50 (NCI-H69; Homo sapiens, NCI-H69): 9.50 | pIC50 (NCI-H1975; Homo sapiens, NCI-H1975): 8.71 | pIC50 (NCI-H2030; Homo sapiens, NCI-H2030): 8.88 | pIC50 (SW620; Homo sapiens, SW-620): 9.08 | pIC50 (SKOV-3; Homo sapiens, SK-OV-3): 8.71 | pIC50 (LOVO; Homo sapiens, LoVo): 8.94 | pIC50 (A-431; Homo sapiens, A-431): 8.55 | pIC50 (OVKATE; Homo sapiens): 8.69 | pIC50 (Hela; Homo sapiens, HeLa): 8.85 | pIC50 (PC-3; Homo sapiens, PC-3): 8.71 | pIC50 (HuH-7; Homo sapiens, Huh-7): 9.18 | pIC50 (NCI-N87; Homo sapiens, NCI-N87): 8.83 | pIC50 (SW156; Homo sapiens): 9.21 | pIC50 (BT474; Homo sapiens, BT-474): 7.92 | pIC50 (BxPC-3; Homo sapiens, BXPC-3): 9.54 | pIC50 (L6; Rattus norvegicus, L6): 8.41 | pIC50 (PC12; Rattus norvegicus, PC-12): 8.75 | pIC50 (CT26; Mus musculus, CT26): 8.25 | pIC50 (B16F10; Mus musculus, B16-F10): 8.26 | pIC50 (MC38; Mus musculus, MC-38): 8.02 | pIC50 (MP-0094-2; Canis lupus familiaris): 8.33 | pIC50 (MP-0094-3; Canis lupus familiaris): 8.15 | pIC50 (D17; Canis lupus familiaris, D17): 8.89 | pIC50 (MP-1092-1; Canis lupus familiaris): 8.76 | pIC50 (CMT-U27; Canis lupus familiaris): 8.89 | pIC50 (DCOL1 (S+L−); Canis lupus familiaris): 8.64 | pIC50 (MP-1044-1; Canis lupus familiaris): 8.07

CC[C@@]1(O)C(=O)OCc2c1cc1n(c2=O)Cc2c-1nc1cc(F)c(C)c3c1c2[C@@H](NC(=O)CO)CC3 [Dxd, reference compound]
pIC50 (HS-746T): 8.98 | pIC50 (NCI-H1781): 9.14 | pIC50 (Panc 02.03): 8.50 | pIC50 (U-2-OS): 7.38 | pIC50 (NCI-H226): 7.64 | pIC50 (HCC1954): 8.48 | pIC50 (NCI-H69): 9.52 | pIC50 (NCI-H1975): 8.00 | pIC50 (NCI-H2030): 8.19 | pIC50 (SW620): 8.41 | pIC50 (SKOV-3): 7.78 | pIC50 (LOVO): 8.06 | pIC50 (A-431): 7.55 | pIC50 (OVKATE): 7.91 | pIC50 (Hela): 8.17 | pIC50 (PC-3): 8.19 | pIC50 (HuH-7): 8.86 | pIC50 (NCI-N87): 8.15 | pIC50 (SW156): 8.74 | pIC50 (BT474): 7.96 | pIC50 (BxPC-3): 8.73 | Pgp substrate (Pgp): Pgp substrates | pIC50 (L6): 7.86 | pIC50 (PC12): 8.04 | pIC50 (CT26): 7.03 | pIC50 (B16F10): 7.58 | pIC50 (MC38): 7.41 | pIC50 (MP-0094-2): 8.01 | pIC50 (MP-0094-3): 7.66 | pIC50 (D17): 8.22 | pIC50 (MP-1092-1): 8.15 | pIC50 (CMT-U27): 8.47 | pIC50 (DCOL1 (S+L−)): 8.04 | pIC50 (MP-1044-1): 7.38

CC[C@@]1(O)C(=O)OCc2c1cc1n(c2=O)Cc2c-1nc1ccc(N)c3c1c2CCS3 [CPT-1]
in vitro killing activity (multiple cell lines): good in vitro killing activity | tumor cell inhibition effect compared with Dxd and SN38 (multiple cell lines): higher tumor cell inhibition effect than Dxd and SN38 | pIC50 (HS-746T; Homo sapiens, Hs746T): 9.28 | pIC50 (NCI-H1781; Homo sapiens, NCI-H1781): 9.53 | pIC50 (Panc 02.03; Homo sapiens, Panc 02.03): 9.58 | pIC50 (U-2-OS; Homo sapiens, U2OS): 8.58 | pIC50 (NCI-H226; Homo sapiens, NCI-H226): 8.63 | pIC50 (HCC1954; Homo sapiens, HCC1954): 8.88 | pIC50 (NCI-H69; Homo sapiens, NCI-H69): 9.52 | pIC50 (NCI-H1975; Homo sapiens, NCI-H1975): 8.77 | pIC50 (NCI-H2030; Homo sapiens, NCI-H2030): 8.96 | pIC50 (SW620; Homo sapiens, SW-620): 9.12 | pIC50 (SKOV-3; Homo sapiens, SK-OV-3): 8.74 | pIC50 (LOVO; Homo sapiens, LoVo): 8.82 | pIC50 (A-431; Homo sapiens, A-431): 8.53 | pIC50 (OVKATE; Homo sapiens): 8.65 | pIC50 (Hela; Homo sapiens, HeLa): 8.99 | pIC50 (PC-3; Homo sapiens, PC-3): 9.07 | pIC50 (HuH-7; Homo sapiens, Huh-7): 9.13 | pIC50 (NCI-N87; Homo sapiens, NCI-N87): 8.92 | pIC50 (SW156; Homo sapiens): 9.43 | pIC50 (BT474; Homo sapiens, BT-474): 8.21 | pIC50 (BxPC-3; Homo sapiens, BXPC-3): 9.67 | pIC50 (L6; Rattus norvegicus, L6): 8.43 | pIC50 (PC12; Rattus norvegicus, PC-12): 8.78 | pIC50 (CT26; Mus musculus, CT26): 8.42 | pIC50 (B16F10; Mus musculus, B16-F10): 8.48 | pIC50 (MC38; Mus musculus, MC-38): 8.17 | pIC50 (MP-0094-2; Canis lupus familiaris): 8.57 | pIC50 (MP-0094-3; Canis lupus familiaris): 8.41 | pIC50 (D17; Canis lupus familiaris, D17): 9.08 | pIC50 (MP-1092-1; Canis lupus familiaris): 9.01 | pIC50 (CMT-U27; Canis lupus familiaris): 9.03 | pIC50 (DCOL1 (S+L−); Canis lupus familiaris): 8.88 | pIC50 (MP-1044-1; Canis lupus familiaris): 8.06
